Here are results for 3 compounds from US20100130737A1, “Regulating Agent of GPR34 Receptor Function” (TAKEDA PHARMACEUTICAL COMPANY LIMITED, priority 2005, published 2010).

Series [1] has as its target T1, human GPR34 (Homo sapiens, UniProt Q9UPC5). As to the kind of experiment: Reactivity of human GPR34CHO cell strain stably expressing Gα16 to lysophosphatidyl serine (FLIPR). In kind it is cell-based. On the set-up: expressed in transfected cells; host or cells: CHO cells (human GPR34CHO line) stably transfected with pCR3.1 human lung Gα16. Conditions: Fluo 3-AM, 3 minutes after addition; concentration-dependent. How it is done:
The reactivity of the human GPR34CHO cell strain stably expressing Gα16 to lysophosphatidyl serine (lysoPS) was investigated by the FLIPR (Molecular Devices) assay method. The fluorescent calcium indicator Fluo 3-AM (Wako Pure Chemical) was incorporated into the human GPR34CHO cell strain stably expressing Gα16, and the cells were washed with assay buffer. Various concentrations of 50 μl lysophosphatidyl serine solution were added to cells immersed in 100 μl of assay buffer, and the intracellular fluorescent strength 3 minutes after addition was measured by FLIPR.

Series [2] addresses T1, human GPR34. The series can be described thus: Human GPR34 antagonist activity as indicated by cAMP in human GPR34-expressing CHO cells. In kind it is cell-based. The arrangement: expressed in transfected cells. Conditions: for cAMP (%): buffer only = 0%, 2.5 μM Forskolin = 100%. As to the method: Human GPR34-expressing CHO cells were maintained in nucleic acid-free MEM-a (Invitrogen) containing 10% dialyzed FBS (Invitrogen) and penicillin and streptomycin (BioWhittaker) (hereunder described as culture medium), and on the day before assay the cells were stripped with trypsin/EDTA (Invitrogen), centrifuged, re-suspended in culture medium and seeded 2×10^5 per well, 1 ml/well on a 24-well plate (Nunc). The seeded cells were cultured overnight at 37° C. in a CO2 incubator, and subjected to cAMP assay the next day.
The plate was washed twice, 500 μL/well with Hank's balanced salt solution (HBSS, Invitrogen) containing 20 mM HEPES (1 M HEPES solution, Dojindo) with 0.2 mM 3-isobutyl-1-methylxanthine (IBMX, Wako Pure Chemical) added thereto (hereunder described as assay buffer (HBSS+HEPES-FIBMX)), and kept warm for 30 minutes in a water bath at 37° C. Next, 250 μL of assay buffer (HBSS+HEPES+IBMX) was substituted, and the plate was kept for a further 15 minutes in a water bath at 37° C. 2 μl of GPR34 antagonist compound solution at 250× the final concentration was added and gently stirred with a plate mixer, 2 μL, of lysoPS (Sigma or Alexis) at 250× the final concentration and 5 μM (2× the final concentration) of Forskolin (Wako Pure Chemical) were added, and 250 μL, of assay buffer (HBSS+HEPES+IBMX) was added and reacted for 30 minutes in a water bath at 37° C. In the case of the human GPR34-expressing CHO cells, 2 μL of 50 μM lysoPS was added so that the final concentration would be roughly the EC50 value of 0.2 μM. After completion of the reaction, intracellular cAMP was detected by competitive EIA using a cAMP Screen System (Applied Biosystems). After completion of the assay, 200 μL, of the Assay/lysis buffer for the cAMP Screen System was substituted, and intracellular cAMP was extracted by maintaining the cells for about 40 minutes at 37° C. EIA was then performed in accordance with the cAMP Screen Systems protocols to assay intracellular cAMP.
Relative percentage values were calculated by Microsoft Excel with the cAMP level with only assay buffer (HBSS+HEPES+IBMX) added (“None” in the table) given as 0%, and the cAMP level with the final concentration 2.5 μM Forskolin added given as 100%.

Series [3] deals with rat peritoneal mast cells. As to the kind of experiment: Degranulation inhibiting activity in rat peritoneal mast cells (β-hexosaminidase release). In kind it is cell-based.
The subject of series [4] is rat peritoneal mast cells. The description is as above. In kind it is cell-based. Particulars: 100 ng/ml DNP-BSA stimulus + 3 μM lysoPS added simultaneously. As to the method: Ice-cooled mast cell medium (hereunder called MCM: 150 mM NaCl, 3.7 mM KCl, 3.0 mM NaH2PO4, 3.5 mM KH2PO4, 5.6 mM (D)-Glucose, 0.1% bovine serum albumin (BSA), 0.1% gelatin, 10 U/ml heparin, pH 6.8) was injected intraperitoneally into rats, about 40 ml per rat, the abdomens were massaged for about 2 minutes and then opened along the median line, and ascites was collected. The collected ascites were filtered with a cell strainer (Becton Dickinson) and centrifuged for 7 minutes at 50×g, and the precipitated cells were suspended in MCM and then centrifuged again for 7 minutes at 50×g. The precipitated cells were suspended in 5 ml of MCM, layered over 2 ml of 32% (w/v) BSA solution (dissolved in 0.9% NaCL), and left for 20 minutes at room temperature. This was centrifuged for 15 minutes at room temperature at 300×g, the cells between the MCM and BSA solution were discarded, and the precipitated cells were suspended in MCM and washed twice by being centrifuged for 5 minutes at 300×g. The precipitated cells were suspended in assay buffer (150 mM NaCl, 3.7 mM KCl, 3.0 mM NaH2PO4, 3.5 mM KH2PO4, 0.9 mM CaCl2, 5.6 mM (D)-Glucose, 0.01% BSA, pH 6.8), and these cells were used in the following test.
RPMC cells suspended in assay buffer were passively sensitized by adding 10 μg/ml of monoclonal mouse anti-DNP-IgE (Seikagaku) and leaving them for 30 minutes on ice. After 5 minutes of centrifugation at 300×g, the precipitated cells were washed 3 times with assay buffer. The RPMC cells suspended in assay buffer were dispensed on 96-well V-bottom plates, 2×10^4 cells per well. The assay was performed with n=3 under each set of reaction conditions. The plates were maintained for 5 minutes at 37° C., the test compound was added, and after 15 minutes lysoPS (Sigma) was added to a final concentration of 3 μM and DNP-BSA (Calbiochem) to a final concentration of 100 ng/ml for a final capacity of 200 and left on a water bath at 37° C. After 20 minutes, the plate was ice cooled to stop RPMC activation, followed by 5 minutes of centrifugation at 300×g, and β-hexosaminidase activity in the supernatant was measured using 4-methylumbelliferyl-2-acetamido-2-deoxy-β-D-glucopyranoside (Wako Pure Chemical) degradation as the indicator.

The term melting point denotes the temperature of the solid-liquid transition. A word on the EC50: it is the midpoint of the concentration-response curve.

T1 sequence (Q9UPC5 whole entry): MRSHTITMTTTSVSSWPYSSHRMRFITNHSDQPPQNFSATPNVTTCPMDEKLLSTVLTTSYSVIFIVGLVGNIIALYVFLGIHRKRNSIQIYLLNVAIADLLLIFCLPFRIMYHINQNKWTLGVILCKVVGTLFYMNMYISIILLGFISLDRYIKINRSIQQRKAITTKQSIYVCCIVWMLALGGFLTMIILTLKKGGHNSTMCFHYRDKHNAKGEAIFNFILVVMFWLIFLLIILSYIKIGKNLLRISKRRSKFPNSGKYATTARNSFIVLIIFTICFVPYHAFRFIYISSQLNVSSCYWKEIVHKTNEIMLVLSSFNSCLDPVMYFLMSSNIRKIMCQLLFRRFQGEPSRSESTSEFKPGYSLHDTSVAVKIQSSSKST

lysophosphatidyl serine: at human GPR34 [1], the “intracellular fluorescent strength (intracellular calcium), in words” value is given as “caused a rise in intracellular fluorescent strength”.

`O=C(Cc1ccc(OCc2ccc(F)cc2)cc1)NC1(C(=O)O)Cc2ccc(-c3ccc(Cl)cc3)cc2C1` (centres unmarked) [Example B134] yielded a melting point of 208 to 209 °C. On human GPR34 [2] (10 μM compound + 2.5 μM Forskolin + 0.2 μM LysoPS), the “cAMP (%)” value was 299%. In addition, the “restoration of cAMP levels (in words)” value on human GPR34 [2] (at 10 μM) is on record as “restored cAMP levels to at or above the level before Forskolin stimulus”.

For lisophosphatidylserine [lysoPS], the “cAMP (%)” value on human GPR34 [2] (0.2 μM LysoPS + 2.5 μM Forskolin) is given as 43%. Also, the EC50 on human GPR34 [2] (human GPR34-expressing CHO cells, cAMP assay, read-out: EC50 value of lysoPS) was around 200 nM. Further, the RPMC degranulation in series [3] (100 ng/ml DNP-BSA stimulus + 0.1 μM lysoPS added simultaneously) is listed as 8.4%; in series [3] (100 ng/ml DNP-BSA stimulus + 0.3 μM lysoPS added simultaneously) it was 14.7%; in series [3] (100 ng/ml DNP-BSA stimulus + 1 μM lysoPS added simultaneously), 26.0%; in series [3] (100 ng/ml DNP-BSA stimulus + 10 μM lysoPS added simultaneously), 45.2%; in series [4] it was 36.7%.
